Literature values in patent publication EP0970199B1, “FLUORESCENT PROTEIN SENSORS FOR DETECTION OF ANALYTES” (The Regents of the University of California, priority 1997, dated 1998).

Conditions: fluorescein in 0.1 N NaOH; 9-aminoacridine in water

Nc1c2ccccc2nc2ccccc12 [9-aminoacridine]
quantum yield of standard: 0.98
